This is an account of results in ChEMBL document CHEMBL1759936, “Oxindole derivatives as inhibitors of TAK1 kinase” (Bioorg Med Chem Lett, 2011).

Molecules are shown by their SMILES. Converted amounts (≈) assume the structure as drawn.

For one series, the target named is TAK1/TAB1 (Homo sapiens, UniProt O43318). The series can be described thus: Competitive inhibition of recombinant TAK1-TAB1 assessed as [33P]gamma-ATP incorporation into substrate histone H1 peptide by filter plate assay. The series is classed as protein-complex assay.
Sequence of TAK1/TAB1 (Q15750 whole entry, one chain of several): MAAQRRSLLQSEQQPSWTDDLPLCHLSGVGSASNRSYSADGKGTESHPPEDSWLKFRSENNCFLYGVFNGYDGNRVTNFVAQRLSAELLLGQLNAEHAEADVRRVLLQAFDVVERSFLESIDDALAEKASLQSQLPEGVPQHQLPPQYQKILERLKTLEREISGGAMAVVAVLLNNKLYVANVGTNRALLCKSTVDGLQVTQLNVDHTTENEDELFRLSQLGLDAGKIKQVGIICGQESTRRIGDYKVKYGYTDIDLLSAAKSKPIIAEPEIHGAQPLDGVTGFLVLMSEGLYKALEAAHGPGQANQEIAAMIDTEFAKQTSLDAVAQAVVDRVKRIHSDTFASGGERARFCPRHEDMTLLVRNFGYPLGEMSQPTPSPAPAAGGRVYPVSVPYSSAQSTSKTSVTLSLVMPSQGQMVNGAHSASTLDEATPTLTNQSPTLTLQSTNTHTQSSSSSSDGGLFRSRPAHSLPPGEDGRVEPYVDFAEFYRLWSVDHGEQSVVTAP
By IC50 is commonly meant the point on the concentration scale where inhibition reaches its midpoint. For the molecule `O=C1Nc2ccccc2/C1=N/N=C1\SCC(=O)N1CC1CCCN1` (configuration not stated), the half-inhibitory concentration (IC50) is 30 µM.
On the same count and under the same terms, in the case of `O=C1Nc2ccccc2/C1=C/C(=O)c1ccccc1` it was greater than 5 µM; in that of `O=C1Nc2ccc(Br)cc2/C1=N/N=C1\SCC(=O)N1c1ccc(O)cc1`, 0.0089 µM; in that of `O=C1Nc2ccccc2/C1=N/N=C1\SCC(=O)N1c1cccc(O)c1`, 29 µM.
On the same count and under the same terms, under `O=C1Nc2ccccc2/C1=N/N=C1\SCC(=O)N1c1ccc(O)cc1` stands 0.046 µM; under `CC1S/C(=N\N=C2/C(=O)Nc3ccc(Cl)cc32)N(c2ccc(O)cc2)C1=O` (configuration not stated), 0.63 µM; under `O=C1Nc2ccccc2/C1=C\c1ccc(O)c(O)c1`, greater than 5 µM.
On to `O=C1Nc2ccc(F)cc2/C1=N/N=C1\SCC(=O)N1c1ccc(O)cc1`, for which the IC50 turned out to be 0.099 µM.
With `O=C1Nc2ccccc2/C1=C\c1ccc(O)c(O)c1O`, the IC50 amounted to 1.7 µM.
For `O=C1Nc2ccc(OC(F)(F)F)cc2/C1=N/N=C1\SCC(=O)N1c1ccc(O)cc1`, the IC50 is 3 µM.
The same measure, in the same setting: under `COc1ccc(N2C(=O)CS/C2=N\N=C2/C(=O)Nc3ccccc32)cc1` stands greater than 5 µM; under `O=C1Nc2ccc(Cl)cc2/C1=N/N=C1\SCC(=O)N1c1ccc(O)cc1`, 0.021 µM.
Take `CN(C)c1ccc(N2C(=O)CS/C2=N\N=C2/C(=O)Nc3ccccc32)cc1`: the IC50 is greater than 50 µM.
The same measure, in the same setting: under `O=C1Nc2ccccc2/C1=N/N=C1\SCC(=O)N1c1ccccc1O` stands 5.8 µM; under `CC(C)C1S/C(=N\N=C2/C(=O)Nc3ccc(Cl)cc32)N(c2ccc(O)cc2)C1=O` (configuration not stated), greater than 5 µM.
The same measure, in the same setting: under `O=C1Nc2ccccc2/C1=C/C(=O)c1ccc(O)c(O)c1` stands 0.56 µM; under `CCC1S/C(=N\N=C2/C(=O)Nc3ccc(Cl)cc32)N(c2ccc(O)cc2)C1=O` (configuration not stated), greater than 5 µM.
Same read-out and setting: under `O=C1Nc2ccccc2/C1=N/N=C1\SCC(=O)N1c1cnccc1O` stands 25 µM; under `O=C1CS/C(=N\N=C2/C(=O)Nc3ccccc32)N1`, greater than 5 µM.
Take `O=C1Nc2ccccc2/C1=N/N=C1\SCC(=O)N1Cc1ccncc1`: the IC50 turned out to be 8.2 µM.
For `Cc1ccc2c(c1)/C(=N/N=C1\SCC(=O)N1c1ccc(O)cc1)C(=O)N2`, the IC50 turned out to be 0.098 µM.
On the same count and under the same terms, under `O=C1Nc2ccccc2/C1=C/C(=O)c1cccc(O)c1` stands 4.1 µM.

The test system of another series is HeLa. The series can be described thus: Cytotoxicity against human HeLa cells. The series is classed as cell-based.
The molecule `O=C1Nc2ccccc2/C1=N/N=C1\SCC(=O)N1c1ccc(O)cc1` gave an IC50 greater than 100 µM.

For a further series, the target named is T1, Mitogen-activated protein kinase kinase kinase 7 (Homo sapiens) (UniProt O43318).
T1 sequence (whole entry): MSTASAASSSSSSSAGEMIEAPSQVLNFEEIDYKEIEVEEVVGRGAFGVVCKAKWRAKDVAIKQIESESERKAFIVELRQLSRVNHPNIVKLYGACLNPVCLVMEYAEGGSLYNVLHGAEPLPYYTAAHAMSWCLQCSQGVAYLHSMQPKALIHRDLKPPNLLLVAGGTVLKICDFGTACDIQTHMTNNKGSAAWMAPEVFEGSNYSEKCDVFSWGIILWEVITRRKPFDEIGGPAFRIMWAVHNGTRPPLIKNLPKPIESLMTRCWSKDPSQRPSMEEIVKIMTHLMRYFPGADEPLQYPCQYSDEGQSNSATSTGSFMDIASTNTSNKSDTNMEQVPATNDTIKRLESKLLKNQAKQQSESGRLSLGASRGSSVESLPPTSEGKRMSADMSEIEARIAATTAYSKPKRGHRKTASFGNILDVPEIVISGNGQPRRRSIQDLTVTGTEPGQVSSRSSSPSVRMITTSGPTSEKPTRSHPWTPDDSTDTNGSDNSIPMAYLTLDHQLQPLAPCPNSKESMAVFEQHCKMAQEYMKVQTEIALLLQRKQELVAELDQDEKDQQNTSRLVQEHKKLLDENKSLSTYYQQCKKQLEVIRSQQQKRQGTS
In words: Competitive inhibition of TAK1 overexpressed in Hela cells assessed as TAK1 autophosphorylation on Thr187 by ELISA.
Consider `O=C1Nc2ccccc2/C1=N/N=C1\SCC(=O)N1c1ccc(O)cc1`, for which the IC50 turned out to be 11 µM.

Test system in a further series: not listed separately
In words: Solubility in phosphate buffer at pH 7.4. The series is classed as physicochemical.
Broadly, the solubility is the dissolved amount per volume that the medium holds. Lower therefore signals a poorly soluble substance. The molecule `O=C1Nc2ccc(Br)cc2/C1=N/N=C1\SCC(=O)N1c1ccc(O)cc1` had a solubility of 3.1 µM (≈ 1.34 µg/mL). In other words, the single-digit micromolar range.
For `O=C1Nc2ccccc2/C1=N/N=C1\SCC(=O)N1c1ccc(O)cc1`, the solubility was 65 µM (≈ 22.9 µg/mL).

The next series concerns the target TAK1/TAB1 (Homo sapiens) (UniProt Q15750+O43318). The series can be described thus: Competitive inhibition of recombinant TAK1-TAB1 assessed as [33P]gamma-ATP incorporation into substrate histone H1 peptide at 10 uM by filter plate assay. In kind it is protein-complex assay.
A word on the inhibition: it is how much of the control response was suppressed. As to `O=C1Nc2ccccc2/C1=C/C(=O)c1ccc(O)cc1O`, the inhibition amounted to 21%.
Take `O=C1Nc2ccccc2/C1=N/N=C1\SCC(=O)N1c1cccc(Oc2ccccc2)c1`: the inhibition turned out to be 0%.
On the same count and under the same terms, in the case of `C/C(C(=O)c1ccccc1)=C1/C(=O)Nc2ccccc21` it was 39%.
Turning to `Cc1c(Cl)ccc2c1NC(=O)/C2=N\N=C1/SCC(=O)N1c1ccc(O)cc1`, the inhibition was found to be 0%.
The same measure, in the same setting: under `O=C1Nc2cccc(Cl)c2/C1=N/N=C1\SCC(=O)N1c1ccc(O)cc1` stands 4%; under `O=C1Nc2ccccc2C1c1ccnc(Nc2ccccc2O)n1` (configuration not stated), 52%; under `O=C1Nc2ccccc2/C1=C\c1c[nH]cn1`, 32%.
With `O=C1Nc2ccccc2C1c1ccnc(Nc2ccc(O)cc2)n1` (configuration not stated), the inhibition amounted to 39%.
Still for that read-out and setting: in the case of `O=C1Nc2ccccc2/C1=N/N=C1\N=NCN1c1ccc(O)cc1` it was 0%.
The same measure, in the same setting: in the case of `O=C1Nc2ccccc2/C1=N/N=C1\SCC(=O)N1c1ccc(OCc2ccccc2)cc1` it was 6%; in that of `Cc1ccc(N2C(=O)CS/C2=N\N=C2/C(=O)Nc3ccccc32)cc1`, 0%.
